Test results from US4225607A, “Pharmaceutical composition containing a xanthine derivative” (Wulfing; Johann A., priority 1979, dated 1980).
Several values for one entry are separate records, joined by “and”; a condition that tells them apart may be missing. Identical values can stand only once.

How the values were obtained:
[1] = system: ischaemic skeletal muscle; experiment: Contractility of ischaemic skeletal (calf) muscle, direct stimulation, femoral artery graded occlusion; format: in vivo; settings: cat; for dose range of activity: contractility and pO2 of ischaemic skeletal muscle; for changes in contractility and pO2 in comparison with Compound A (in words): 5-32 mg/kg vs Compound A at 125 μg/kg
Description: Cats of either sex were anaesthetized with urethane/chloralose (120/60 mg/kg i.p.). […] The intraduodenal (i.d.) application of compound was conducted by means of a plastic catheter, which was inserted into the duodenum.
Cats of either sex were anaesthetized as for pO2 measurement. After dissection of the skin of the calf muscles, the sciatic nerve was cut about 3 cm proximal to the knee. The tendon of the calf muscles was cut and connected with an isometric force transducer (SWEMA, SG 3). In order to maintain constant differences and a resting tension of 100 p, the hind limb was fixed at the tibia by means of a clamp. Direct stimulation of the muscles consisted of square wave pulses of 4 msec duration at a frequency of 2 Hz and at a voltage of 50 V. In order to keep the muscles wet and at a normal temperature, the muscles were continuously superfused by means of a NaCl-solution (0.9%, 38° C.). Femoral blood flow was restricted by a graded occlusion of the artery leading to a reduction of contractility by ca. 30%. After having reached a constant level of the contraction force, the vehicle (NaCl and Methocel, respectively) was injected, followed by the test substance.

skeletal muscle = experiment: Oxygen tension (pO2) in skeletal muscle (m. gastrocnemius), femoral artery ligation, Pt-needle electrodes; format: in vivo, cat; settings: for effect of Compound A, Δ pO2: 125 μg/kg i.v.
Description: Cats of either sex were anaesthetized with urethane/chloralose (120/60 mg/kg i.p.). In the course of the experiments, pentobarbital was injected intravenously (V. antebrachii ceph.) via a plastic tube. The intraduodenal (i.d.) application of compound was conducted by means of a plastic catheter, which was inserted into the duodenum.
pO2 was measured polarographically using Pt-needle electrodes (modified according to Baumgartl and Lubbers, 1973). The reference electrode, an Ag/AgCl system was sputtered on the glass mantle of the cathode, or it was a separate electrode. The cathode was coated with a polystyrol and a collodium membrane. A constant voltage supply provided a polarizing voltage between 600 and 800 mV. The reducing current was measured by a nano-ampere amplifying meter. The cathode was inserted in the tissue by means of a motor-driven micromanipulator.
A pO2 -electrode was inserted in the muscle tissue (m. gastrocnemius) of both hindlegs of an anaesthetized cat. After recording the pO2 of the normal perfused muscle, the blood flow to one measuring site was restricted by ligating the femoral artery. The pO2 dropped steeply and the tissue became ischaemic. After a few minutes, the pO2 increased and then decreased again. The values were constant after 30 to 60 min. After having reached a constant level of pO2, the vehicle was given, followed by the test substance.
The mean value and the standard deviation were calculated, in order to check the significance of the effect.

[2] = Blood pressure (BP), initial decrease phase and second increase phase; format: in vivo, cat; settings: Table 3, 125 μg/kg i.v.
LD50 in mice per oral = settings: mouse, in vivo
[3] = Solubility in water / aqueous media; format: physicochemical
[4] = in vivo; cited from earlier work

Compound: CCCCn1c(=O)c2c(ncn2CC(C)=O)n(CCCC)c1=O [Compound A, 1,3-di-n-butyl-7-(2-oxopropyl)xanthine]
- contractility of ischaemic skeletal muscle (in words) [1]: distinct increase
- dose range of activity [1]: 0.05 to 0.125 mg/kg
- effect of Compound A, Δ pO2 (skeletal muscle; Table 2, control hind limb, individual cats): 3.8 Torr and 3.5 Torr and 3.4 Torr
- effect of Compound A, Δ pO2 (skeletal muscle; Table 2, hind limb with art. ligation, individual cats): 6.2 Torr and 7.3 Torr and 5.2 Torr and 5.6 Torr
- pO2 of ischaemic skeletal muscle (in words) (skeletal muscle; cat): distinct increase
- t, time interval to reach initial values, second phase BP increase [2]: 32 min
- LD50 (LD50 in mice per oral): > 1000 mg/kg
- solubility in aqueous media (in words) ([3]; aqueous media): only sparingly soluble in aqueous media

Compound: CC(=O)CCCCn1c(=O)c2c(ncn2C)n(C)c1=O [Compound B, pentoxyphylline]
- changes in contractility and pO2 in comparison with Compound A (in words) [1]: less pronounced in comparison with Compound A
- dose range of activity [1]: 5 to 32 mg/kg
- Mean effect of Compound B compared to Compound A (skeletal muscle; Table 2, B at 5 mg/kg vs A at 125 μg/kg, mean): 21.3%
- effect of Compound B, Δ pO2 (skeletal muscle; Table 2, control hind limb, 5 mg/kg i.v., individual cats, 5 mg/kg): 0.3 Torr
- oral toxicity (in words) [4]: low oral toxicity

Compound: CCCCn1c(=O)c2c(ncn2CC(=O)CC)n(CCCC)c1=O [Compound C, 1,3-di-n-butyl-7-(2-oxobutyl)xanthine]
- changes in contractility and pO2 in comparison with Compound A (in words) [1]: less pronounced in comparison with Compound A
- contractility (% initial value) ([1]; Table 1, ischaemic muscle, i.d., 12.5 mg/kg): 22 % initial value
- dose range of activity [1]: 5 to 32 mg/kg
- pO2 (increase) (skeletal muscle; Table 1, ischaemic muscle, cat, i.d., 32 mg/kg): 6 mmHg
- water solubility (in words) ([3]; water, reason for NT i.v.): low water solubility
